From US20080249144A1, “Preventive or Therapeutic Agent for Chronic Inflammatory Lung Disease” (KAKEN PHARMACEUITICAL CO., LTD., priority 2004, published 2008)

Experiments:
[1] = tested on: COPD patients; conditions: according to the reports (Non-patent documents 7, 8 and patent document 1); cited from earlier work
[2] = tested on: human neutrophils; test: LTB4-induced human neutrophil migration (48-well modified Boyden chamber); assay type: cell-based; conditions: test substance 10 μmol/L; 10 nmol/L LTB4
Protocol: Leukocytes were collected from human peripheral blood samples (20 mL of venous blood was taken by a doctor) were obtained from 4 healthy adults (male). They received sufficient information on the purpose of the experiment and gave informed consent in advance. An equivalent amount of 3% dextran (M.W. 208000) saline solution was added to the heparinized blood thus obtained and the mixture was kept to stand for one hour. Thereafter, the supernatant was collected and centrifuged at 150 g for 5 minutes at 4° C. The supernatant was discarded and the pellet was repeatedly twice haemolysed. To explain in detail, 4 mL of an ice-cooled 0.2% NaCl solution was added, quickly suspended and allowed to stand for 20 to 30 seconds. Thereafter, 4 mL of an ice-cooled 1.6% NaCl solution was added to the suspension solution to return the solution to the isotonic condition. After centrifugation was performed at 150 g for 5 minutes at 4° C., the same treatment was repeated. The cell pellet obtained was finally suspended in a buffer (Hank's solution containing 0.1% FBS) and subjected to an experiment.
This experiment was performed using a 48-well modified Boyden chamber (Neuro Probe). To explain in detail, the wells of the bottom plate of the chamber were filled with 25 μl of vehicle solution containing 10 nmol/L of LTB4. A polycarbonate filter (PVP-free, pore size: 3 μm) was placed on the bottom plate. The top plate of the chamber was mounted and each well of the upper plate was filled with 45 μL of a leukocyte suspension solution (1.0×10^6 cells/mL) prepared with the buffer. Immediately after that, 5 μL of a test substance (10 fold concentration of a final concentration) was added to the wells. […] The numbers of cells were counted in 4 visual fields (×400) per well and the average of them was regarded as the number of migrated cells. Each test substance was evaluated using 3 wells. The average value of these wells was calculated and regarded as the value of each substance.
The average and standard deviation of each group were calculated. […]

[3] = tested on: vanadium pentoxide-induced bronchitis model; test: Vanadium pentoxide-induced bronchitis model in mice; assay type: in vivo; conditions: 7 days after vanadium pentoxide; compared with control
Protocol: Seven-week old C57BL strain male mice were used. The mouse was anaesthetized with isoflurane. Vanadium pentoxide (20 μg) was administered once to the lung through a cannula inserted into the trachea through the pharyngolarynx to induce pathology. To a non-vanadium pentoxide administration group (normal group), saline was administered, instead. KP-496 was administered by inhalation twice a day in the period from the vanadium pentoxide administration date to the day before autopsy, in the same manner as in Example 2. Furthermore, the normal group and the control group were allowed to spontaneously inhale saline in the same manner. A medicament for use in comparison, prednisolone, was orally administered at a dose of 5 mg/kg twice a day in the period from the vanadium pentoxide administration date to the day before autopsy. Note that the normal group consisted of 6 animals and the other group consisted of 10 animals. Each of the mice was anaesthetized with pentobarbital 7 days after vanadium pentoxide administration and killed by bloodletting from the abdominal aorta. The lung was excised out and fixed in 10 vol % neutral buffered formalin solution. […] The obtained value was divided by the circumferential length of the bronchial lumen (obtained in mucosal basal membrane) and the quotient was expressed as a mucus producing region area per millimeter of the bronchus. […]

[4] = tested on: PPE-induced pulmonary emphysema model; test: PPE-induced pulmonary emphysema model in mice; assay type: in vivo
Protocol: Eight-week old C57BL strain mice were anaesthetized with isoflurane. PPE (25 μg) was administered once to the lung through a cannula inserted into the trachea through the pharyngolarynx to induce a pulmonary damage. To a non-PPE administration group (normal group), saline was administered instead. In a preventive administration experiment (hereinafter referred to as a “preventive experiment”) of KP-496, drug effect was evaluated on inflammatory cells in BALF 2 days after PPE administration and by histopathological examination of the lung after 10 days. In a therapeutic administration experiment of KP-496 (hereinafter referred to as a “therapeutic experiment”), the drug effect was evaluated by histo-pathological examination of the lung and weight of the organs 14 days after PPE administration.
The medicament administration period was set from the PPE administration date to the day before autopsy in the preventive experiment and set from a predetermined day (KP-496A group: PPE administration date, KP-496B group: 3 days after PPE administration date, KP-496C group: 7 days after PPE administration date) to the day before autopsy in the therapeutic experiment. Inhalation administration of KP-496 was performed in the same manner as in Example 2. Furthermore, the normal group and the control group were allowed to spontaneously inhale saline, instead. A medicament for use in comparison, prednisolone, was orally administered in a dose of 5 mg/kg twice a day. A group consisted of 10 animals.
The animals were anaesthetized with pentobarbital and killed by exsanguination. Immediately after that, BAL of the right and left lungs was performed with 2 ml of saline. In the same manner as in Example 2, the total number of cells and the number of cells according to the cell type in the BALE were determined.
The lung was excised out from the animal killed by exsanguination in the same manner as in the above, the weight of the lung was measured. The lung was fixed in 10 vol % neutral buffered formalin solution. A pathological tissue sample was prepared in accordance in a general way. The degree of the damage of the lung tissue observed was evaluated by scoring in the same manner as in Example 2. Furthermore, the average of alveolar-space area of the entire lung tissue sample was computationally measured with image-processing software.
The average value and standard deviation of each group were calculated. Comparison between the normal group and the control group was performed by the Levene's test for equal variance and then, the t-test was performed depending on the results. To compare the control group and test substance administration groups, equal variance was first confirmed by the Levene's test and then multiple comparisons were performed in accordance with the Dunnett's test. Note that evaluation parameters with unequal variance and the damage score of the lung tissue were analyzed by nonparametric Mann-Whitney test. The significance level employed was […].

Row | weights of the organs (liver, spleen and thymus gland) ([4]; compared to control group) | SMILES | respiratory function of COPD patients [1] | suppression of LTB4-induced neutrophil migration [2] | increase of PAS positive area (mucus producing region of intrapulmonary bronchial epithelium) [3] | total number of cells in BALF ([4]; 2 days after PPE administration, preventive experiment) | number of eosinophils in BALF ([4]; 2 days after PPE, compared to control group) | increase in lung weight ([4]; preventive experiment, 10 days after PPE) | damage score of the lung ([4]; preventive experiment, 10 days after PPE, compared with control group) | body weight change ([4]; preventive experiment, up to 10 days after PPE, compared to control group) | increase of the average of the alveolar-space area ([4]; preventive experiment, compared to control)
1 | – | COc1cc(C(=O)NS(=O)(=O)c2ccccc2C)ccc1Cc1cn(C)c2ccc(NC(=O)OC3CCCC3)cc12 [zafirlukast] | improves the respiratory function | – | – | – | – | – | – | – | –
2 | – | CC1=C(C)C(=O)C(C(CCCCCC(=O)O)c2ccccc2)=C(C)C1=O (centres unmarked) [seratorodast, reference compound] | improves the respiratory function | did not suppress the migration at all | – | – | – | – | – | – | –
3 | significantly decreased | C[C@]12C=CC(=O)C=C1CC[C@@H]1[C@@H]2[C@@H](O)C[C@@]2(C)[C@H]1CC[C@]2(O)C(=O)CO [prednisolone, reference compound] | – | – | significantly suppressed | 4.3±2.1 ×10^5 cells | significantly decreased | significantly suppressed | significantly decreased | significant reduction compared to the control group | significantly suppressed
